{"source": "patent US20060088897A1", "about": "“Modulators” (priority 2003, published 2006)", "type_in_all_cases": "cell-based", "key": {"[1]": {"tested_on": "N1E-115 cells", "experiment": "Microinjection of peptides into partially serum starved N1E-115 cells, phalloidin staining and confocal microscopy of cell morphology", "conditions": "FIG. 8A", "protocol": "(§1) Cells are starved for 2-3 h and then either injected with peptides (10 μg/ml) or exposed to peptides with bioporter reagent. Cells are incubated for a further 2 h before being stained with phalloiden and examined by confocal microscopy (as described in the materials and methods section). (A) The upper cells is injected with αP1 (a), or all cells injected with αP1*(b), or exposed to αP2 with bioporter reagent (c). […] Results are expressed as means+/−SEM of 3 experiments (n=333-426 cells). […] (D) Cells are exposed to bioporter reagent with αP2 and after 6 h double stained with αPAK and vinculin antibodies; (a) Vinculin/αPAK, (b) Vinculin and (c) αPAK. Bar=10 μM. Control bars are with IgG with bioporter/microinjection.\n(§2) Cells are starved for 2-3 h and then injected with peptides. Cells are then incubated for 2 h before being stained with phalloiden and examined by confocal microscopy (as described in the materials and methods section). (A) Cells are injected with IgG (a), with αP2 (b), with βP2 (c) and γP2 (d). Bar=10 μM. (B) Cells are exposed to bioporter with peptides and presence of neurites, pronounced filopodia and pronounced lamellipodia/ruffles scored (definitions as in FIG. 7). (C) Cells are either exposed to bioporter reagent coated peptides (αP2 and βP2) and then IGF or serum starvation used to activate cells. For γP2 cells are injected with peptide and stimulated with serum. Filopodia and lamellipodia are scored by using time-lapse phase contrast microscopy. +/−SEM of 3 experiments (n=900). Control peptide is taken from the kinase domain and common to the three PAK isoforms.\nCells are plated out at 1.0×10^5 cells in 1 ml in a 35 mm dish containing 2 laminin coated coverslips. The coverslips are first marked with a grid using a fine permanent marker and then coated with laminin and incubated overnight in DMEM, 10% FCS, 1% AB/AM. The media is replaced with serum free media (DMEM, 1% AB/AM) and the cells starved for 1 hour so that they flattened and are easier to inject. The peptides are injected at 10 μg/ml in PBS, Rat IgG at 1 mg/ml is added to act as a marker for injected cells.\nThe cells are injected using an Eppendorf microinjection apparatus on an Axioplan inverted microscope equipped with a heated stage maintained at 37° C. and a 5% CO2 chamber. Humidity is maintained by a dish of sterile water inside the CO2 chamber. Cells in a grid square are injected and positive injection checked visually at the time of injection or after fixation and staining for the injected marker. After injection the cells are returned to the incubator for a further 2 hours. Giving a total time without serum of 4 hours.\nThe only difference between these two peptides being that the latter peptide is phosphorylated on serine and this modification prevents it from binding Nck (Zhao et al., 1998). To investigate the effects of peptides we first serum starve the cells for 2-4 h to activate Cdc42Hs and Rac."}, "[2]": {"tested_on": "N1E-115 cells", "experiment": "Peptide delivery with BioPorter reagent, scoring of neurites, filopodia and lamellipodia/ruffles", "protocol": "as §1, §2\nBioPorter regent is supplied as a dried powder and must be dissolved in a solvent before use. To each tube of BioPorter reagent 250 μl of methanol is added and the powder is re-suspended by vortexing for 10-20 seconds. 10 μl of the mix is transferred into new eppendorf tubes; the methanol is allowed to evaporate for 2 hours in a laminar flow hood. The dried reagent is stored at −20° C.\nCells are plated out at 1.5×10^5 cells in a 35 mm dish containing 2 laminin-coated coverslips and incubated overnight. […]"}, "[3]": {"tested_on": "N1E-115 cells", "experiment": "Double staining of peptide treated cells with vinculin and αPAK antibodies (focal complexes)", "conditions": "FIG. 7D", "protocol": "as §1\nFor in situ analysis primary/secondary antibodies are used at 1:100 dilution. PAK antibodies, all from Santa-Cruz, are as follows; αPAK N-20 (raised to rat amino acids 2-21), αPAK C-19 (raised to rat amino acids 525-544), βPAK (raised to mouse amino acids 2-20), γPAK (raised to human amino acids 2-20) and γPAK (raised to human amino acids 2-20). Vinculin, paxillin, phosphotyrosine are from Sigma. Integrin antibodies β1-integrin and α6-integrin a gift from A. Sonneberg, NCI, Netherlands. Bac1 cells are seeded onto coverslips and then grown for 24 h before the media is replaced with either CSF free, serum free, or CSF/serum free. […]"}, "[4]": {"tested_on": "N1E-115 cells", "experiment": "Cell guidance assay at Laminin/CSPG boundary (axonal guidance)", "protocol": "Effect of PAK peptides on neurite morphology. Cells are exposed to control peptide, αP 1*, αP2, βP2, or γP2 and neurite morphology assessed. (B) Cells are plated on coverslips that been treated to create a Laminin/CSGP boundary. After 6 h cells are examined for their ability to project neurites that crossed the substrate boundary. Cells exposed to bioporter coated peptides, (a) αP2, (b) βP2, and (c) γP2. […] Results are means+/−SEM (n=161-263). (C) Cells are exposed to peptides and after 6 h are scored for their ability to cross boundary from Laminin to CSPG.\nThe coverslips are washed and sterilised and then coated in one of the following ways.\nA second layer of laminin is applied as a drop mixed with 1 μg/ml TRITC label. Coverslips are left for 1 hour at RT and then rinsed twice with sterile water before allowing to dry before use. (iii) Attractive/repulsive boundary. Slides are coated with CSPG 5 μg/ml for 1 hour at 37° C. in a humid chamber then rinsed once in sterile H2O and allowed to air dry before the drop of laminin at 10 μg/ml is applied to the centre of the coverslip and left for 1 hour at RT before rinsing twice in sterile water and allowing to dry before use. This coating is also done in reverse with the laminin applied first and then the tenascin or the CSPG applied second.\nThe cells are then seeded onto the prepared coverslips at 2×10^5 cells in 1 ml in a 35 mm petri dish, in DMEM, 10% FCS, and 1% AB/AM. Cells are allowed to attach overnight. The media is then removed and the coverslips rinsed in serum free media and incubated overnight (18 h) in serum free media. After the starvation the cells are fixed and stained to show the morphology of the cells at the boundary. Only neurites expressing neurofilamant are scored.\nAfter 5 minutes, the cells are washed once with serum free DMEM media and then 1 ml of serum free DMEM is added to the tube containing the peptide and BioPorter mix it is vortexed gently before being added to the cells. The cells are incubated for 4 hours at 37° C. After the 4 hour incubation the cells are then incubated for a further 2 hours in 5% FCS DMEM or for cells undergoing a substrate guidance assay the 2 hour incubation is in serum free DMEM. The cells are fixed and stained.\nNeurofilament positive neurites are scored for how they respond to Laminin/CSPG boundary. […] However, neurites do have distinct morphologies (FIG. 9A). Thus α, β and γ PAK are not essential for neurite outgrowth."}, "[5]": {"tested_on": "N1E-115 cells", "experiment": "Axonal guidance towards IGF (preliminary experiments)", "conditions": "unpublished data", "excerpt": "In preliminary experiments we have also examined the effect of the PAK peptides on axonal guidance towards IGF in N1E-115 cells."}}, "data": [{"sequence": "SNNGLDIQDKPPAPPMRNTS [αP2]", "values": [{"measurement": "effect on formation of lamellipodia, filopodia or neurites concluded from microinjection", "setting": "[1]", "value": "synergise with both Cdc42 and Rac to produce neurites"}, {"measurement": "neurite phenotype compared with αP1", "setting": "[2]; FIG. 7B", "value": "neurites that are thinner and longer"}, {"measurement": "percentage of cells possessing neurites compared with αP1", "setting": "[2]; FIG. 7B", "value": "higher"}, {"measurement": "optimal peptide concentration for the phenotypic changes", "setting": "[2]; dosage dependent effect, FIG. 7C", "value": 10, "unit": "µg/mL"}, {"measurement": "αPAK containing focal complexes (FC's) after peptide treatment", "setting": "[3]", "value": "leads to loss of FC's"}, {"measurement": "ability to detect the Laminin/CSPG boundary", "setting": "[4]; FIG. 9C", "value": "not affected"}, {"measurement": "neurite morphology", "setting": "[4]; serum starved cells, FIG. 9A", "value": "indistinguishable from control cells"}, {"measurement": "effect on axonal guidance towards IGF", "setting": "[5]", "value": "do not affect guidance"}]}]}
